Results taken from the kinase profiling compilation of Christmann-Franck et al. (2016).
Several values for one entry are separate records, joined by “and”; a condition that tells them apart may be missing. Equal entries are not always repeated.

What was measured:
Test in all cases: Caliper, Mobility shift assay off-chip
AURKC (human) = AURKC (human) (UniProt Q9UQB9)
CAMK1D (human) = CAMK1D (human) (UniProt Q8IU85)
CDK4 (human) = CDK4 (human) (UniProt P11802)
CHEK2 (human) = CHEK2 (human) (UniProt O96017)
CLK1 (human) = CLK1 (human) (UniProt P49759)
CLK1 (human), sequence (P49759 whole entry, looked up): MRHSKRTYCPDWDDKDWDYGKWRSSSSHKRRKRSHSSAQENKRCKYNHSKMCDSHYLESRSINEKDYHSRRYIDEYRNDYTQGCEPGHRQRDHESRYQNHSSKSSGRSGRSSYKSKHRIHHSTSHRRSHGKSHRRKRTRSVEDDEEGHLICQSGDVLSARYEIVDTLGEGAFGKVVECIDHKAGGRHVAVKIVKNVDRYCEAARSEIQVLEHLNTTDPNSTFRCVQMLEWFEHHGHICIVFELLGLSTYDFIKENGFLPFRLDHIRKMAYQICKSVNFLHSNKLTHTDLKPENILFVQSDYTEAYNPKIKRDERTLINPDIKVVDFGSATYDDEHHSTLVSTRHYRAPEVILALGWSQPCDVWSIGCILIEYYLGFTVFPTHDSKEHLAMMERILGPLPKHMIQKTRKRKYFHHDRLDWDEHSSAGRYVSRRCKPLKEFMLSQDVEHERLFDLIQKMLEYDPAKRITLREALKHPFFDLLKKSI

CSNK1D (human) = CSNK1D (human) (UniProt P48730)
CSNK1D (human), sequence (P48730 whole entry, looked up): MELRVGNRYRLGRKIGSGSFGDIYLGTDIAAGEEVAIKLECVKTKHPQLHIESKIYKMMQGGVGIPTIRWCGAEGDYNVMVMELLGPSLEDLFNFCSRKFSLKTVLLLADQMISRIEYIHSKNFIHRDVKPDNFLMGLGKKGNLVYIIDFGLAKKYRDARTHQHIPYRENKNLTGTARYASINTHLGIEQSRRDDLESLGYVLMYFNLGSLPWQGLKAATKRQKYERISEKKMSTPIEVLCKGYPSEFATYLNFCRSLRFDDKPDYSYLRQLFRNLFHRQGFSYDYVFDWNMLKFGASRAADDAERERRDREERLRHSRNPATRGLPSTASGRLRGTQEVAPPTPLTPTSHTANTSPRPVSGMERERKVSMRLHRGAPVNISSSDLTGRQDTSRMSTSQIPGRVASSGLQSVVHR

DYRK1A (human) = DYRK1A (human) (UniProt Q13627)
FLT3 (human) = FLT3 (human) (UniProt P36888)
FLT4 (human) = FLT4 (human) (UniProt P35916)
FYN (human) = FYN (human) (UniProt P06241)
FYN (human), sequence (P06241 whole entry, looked up): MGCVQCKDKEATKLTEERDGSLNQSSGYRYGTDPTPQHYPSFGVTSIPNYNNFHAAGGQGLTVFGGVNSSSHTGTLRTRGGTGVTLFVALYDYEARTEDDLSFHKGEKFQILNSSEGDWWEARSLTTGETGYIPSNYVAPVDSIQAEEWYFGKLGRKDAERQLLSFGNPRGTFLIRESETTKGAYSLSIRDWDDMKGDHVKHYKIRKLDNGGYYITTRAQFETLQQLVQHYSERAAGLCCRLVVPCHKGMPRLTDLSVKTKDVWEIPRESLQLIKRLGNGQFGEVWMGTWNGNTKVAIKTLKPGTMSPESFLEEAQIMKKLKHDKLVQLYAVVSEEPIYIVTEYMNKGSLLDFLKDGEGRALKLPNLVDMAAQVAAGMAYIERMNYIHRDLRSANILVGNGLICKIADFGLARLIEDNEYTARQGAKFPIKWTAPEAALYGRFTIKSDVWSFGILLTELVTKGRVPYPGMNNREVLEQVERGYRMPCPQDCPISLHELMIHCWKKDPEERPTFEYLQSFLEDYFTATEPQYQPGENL

GSK3B (human) = GSK3B (human) (UniProt P49841)
HIPK4 (human) = HIPK4 (human) (UniProt Q8NE63)
IKBKB (human) = IKBKB (human) (UniProt O14920)
INSRR (human) = INSRR (human) (UniProt P14616)
LYN (human) = LYN (human) (UniProt P07948)
LYN (human), sequence (P07948 whole entry, looked up): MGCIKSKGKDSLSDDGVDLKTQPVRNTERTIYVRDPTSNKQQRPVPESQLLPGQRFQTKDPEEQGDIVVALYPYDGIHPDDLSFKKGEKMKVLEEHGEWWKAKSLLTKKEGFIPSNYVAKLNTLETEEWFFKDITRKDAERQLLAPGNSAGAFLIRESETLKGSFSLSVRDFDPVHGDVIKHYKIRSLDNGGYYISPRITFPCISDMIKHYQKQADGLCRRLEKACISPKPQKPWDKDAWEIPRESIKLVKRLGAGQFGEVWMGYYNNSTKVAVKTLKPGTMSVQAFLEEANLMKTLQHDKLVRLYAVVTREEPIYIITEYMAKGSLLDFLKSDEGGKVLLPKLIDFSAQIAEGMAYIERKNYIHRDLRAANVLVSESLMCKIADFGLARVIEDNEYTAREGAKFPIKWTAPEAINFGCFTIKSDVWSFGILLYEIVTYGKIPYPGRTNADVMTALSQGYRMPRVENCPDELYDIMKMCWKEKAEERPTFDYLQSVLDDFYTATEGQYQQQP

MAPK11 (human) = MAPK11 (human) (UniProt Q15759)
MAPK3 (human) = MAPK3 (human) (UniProt P27361)
MYLK2 (human) = MYLK2 (human) (UniProt Q9H1R3)
MYLK2 (human), sequence (Q9H1R3 whole entry, looked up): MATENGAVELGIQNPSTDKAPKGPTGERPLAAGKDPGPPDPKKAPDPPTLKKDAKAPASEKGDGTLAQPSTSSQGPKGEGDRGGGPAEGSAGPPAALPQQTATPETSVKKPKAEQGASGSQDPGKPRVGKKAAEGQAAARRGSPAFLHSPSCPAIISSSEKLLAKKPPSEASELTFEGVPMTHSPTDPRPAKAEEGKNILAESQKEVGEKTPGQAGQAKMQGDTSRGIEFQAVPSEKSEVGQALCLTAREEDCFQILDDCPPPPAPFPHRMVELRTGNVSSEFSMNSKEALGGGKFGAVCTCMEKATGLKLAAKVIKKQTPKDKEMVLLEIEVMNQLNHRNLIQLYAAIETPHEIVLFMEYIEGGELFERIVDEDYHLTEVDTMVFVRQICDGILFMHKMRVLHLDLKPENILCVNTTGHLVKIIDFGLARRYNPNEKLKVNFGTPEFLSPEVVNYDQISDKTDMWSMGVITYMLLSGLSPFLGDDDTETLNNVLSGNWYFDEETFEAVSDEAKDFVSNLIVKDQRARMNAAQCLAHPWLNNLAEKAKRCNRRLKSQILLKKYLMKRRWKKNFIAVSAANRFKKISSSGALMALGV

NEK4 (human) = NEK4 (human) (UniProt P51957)
NEK7 (human) = NEK7 (human) (UniProt Q8TDX7)
NUAK1 (human) = NUAK1 (human) (UniProt O60285)
PAK1 (human) = PAK1 (human) (UniProt Q13153)
PAK6 (human) = PAK6 (human) (UniProt Q9NQU5)
PLK3 (human) = PLK3 (human) (UniProt Q9H4B4)
PRKAA1 (human) = PRKAA1 (human) (UniProt Q13131); conditions: compound 0.2 µM
PRKCA (human) = PRKCA (human) (UniProt P17252)
PRKCI (human) = PRKCI (human) (UniProt P41743)
PRKG2 (human) = PRKG2 (human) (UniProt Q13237)
PRKX (human) = PRKX (human) (UniProt P51817)
PTK6 (human) = PTK6 (human) (UniProt Q13882)
PTK6 (human), sequence (Q13882 whole entry, looked up): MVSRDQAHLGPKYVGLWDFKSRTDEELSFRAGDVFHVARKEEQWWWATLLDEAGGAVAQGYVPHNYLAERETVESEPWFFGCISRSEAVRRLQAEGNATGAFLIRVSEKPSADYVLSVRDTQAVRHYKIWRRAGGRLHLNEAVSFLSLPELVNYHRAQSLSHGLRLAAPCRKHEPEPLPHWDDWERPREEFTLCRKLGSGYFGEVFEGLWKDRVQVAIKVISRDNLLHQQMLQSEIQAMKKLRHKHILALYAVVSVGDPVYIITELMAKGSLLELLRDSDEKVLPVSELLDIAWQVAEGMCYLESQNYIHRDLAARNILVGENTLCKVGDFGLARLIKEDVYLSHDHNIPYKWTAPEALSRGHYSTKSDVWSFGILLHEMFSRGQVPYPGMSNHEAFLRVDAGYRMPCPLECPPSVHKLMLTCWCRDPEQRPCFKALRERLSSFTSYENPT

SGK2 (human) = SGK2 (human) (UniProt Q9HBY8)
SIK1 (human) = SIK1 (human) (UniProt P57059)
TSSK2 (human) = TSSK2 (human) (UniProt Q96PF2)
TYK2 JH1 JH2 (human) = TYK2 JH1 JH2 (human) (UniProt P29597)
TYK2 JH1 JH2 (human), sequence (P29597 whole entry, looked up): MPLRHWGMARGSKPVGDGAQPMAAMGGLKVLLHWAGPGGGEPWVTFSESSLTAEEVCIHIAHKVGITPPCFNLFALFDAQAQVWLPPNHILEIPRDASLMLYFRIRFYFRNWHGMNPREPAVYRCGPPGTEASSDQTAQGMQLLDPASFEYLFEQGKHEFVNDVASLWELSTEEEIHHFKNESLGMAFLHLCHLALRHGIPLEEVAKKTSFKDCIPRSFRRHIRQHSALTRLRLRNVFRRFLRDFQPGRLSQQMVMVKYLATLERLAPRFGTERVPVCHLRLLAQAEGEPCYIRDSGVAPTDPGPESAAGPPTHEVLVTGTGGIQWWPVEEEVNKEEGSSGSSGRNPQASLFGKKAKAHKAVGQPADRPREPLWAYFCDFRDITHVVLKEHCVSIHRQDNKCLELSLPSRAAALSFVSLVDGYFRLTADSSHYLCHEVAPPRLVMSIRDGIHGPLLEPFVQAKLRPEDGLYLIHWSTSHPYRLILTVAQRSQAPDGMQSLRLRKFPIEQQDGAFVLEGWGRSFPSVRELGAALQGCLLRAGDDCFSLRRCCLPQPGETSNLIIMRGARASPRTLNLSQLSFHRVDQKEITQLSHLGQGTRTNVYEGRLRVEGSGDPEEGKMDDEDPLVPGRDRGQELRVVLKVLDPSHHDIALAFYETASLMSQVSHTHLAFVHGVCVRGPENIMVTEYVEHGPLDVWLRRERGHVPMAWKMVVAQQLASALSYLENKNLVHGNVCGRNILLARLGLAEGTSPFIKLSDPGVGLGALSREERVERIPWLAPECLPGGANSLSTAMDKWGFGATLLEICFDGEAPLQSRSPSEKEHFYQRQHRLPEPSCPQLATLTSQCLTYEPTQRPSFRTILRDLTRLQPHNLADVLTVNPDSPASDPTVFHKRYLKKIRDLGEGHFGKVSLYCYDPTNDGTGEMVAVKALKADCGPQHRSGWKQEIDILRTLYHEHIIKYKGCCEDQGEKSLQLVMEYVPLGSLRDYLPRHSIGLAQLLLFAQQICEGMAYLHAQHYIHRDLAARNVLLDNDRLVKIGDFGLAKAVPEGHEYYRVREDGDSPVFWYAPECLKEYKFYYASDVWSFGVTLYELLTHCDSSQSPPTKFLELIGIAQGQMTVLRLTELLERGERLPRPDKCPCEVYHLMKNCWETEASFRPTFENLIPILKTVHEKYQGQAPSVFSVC

AURKC (human), sequence (Q9UQB9 whole entry, looked up): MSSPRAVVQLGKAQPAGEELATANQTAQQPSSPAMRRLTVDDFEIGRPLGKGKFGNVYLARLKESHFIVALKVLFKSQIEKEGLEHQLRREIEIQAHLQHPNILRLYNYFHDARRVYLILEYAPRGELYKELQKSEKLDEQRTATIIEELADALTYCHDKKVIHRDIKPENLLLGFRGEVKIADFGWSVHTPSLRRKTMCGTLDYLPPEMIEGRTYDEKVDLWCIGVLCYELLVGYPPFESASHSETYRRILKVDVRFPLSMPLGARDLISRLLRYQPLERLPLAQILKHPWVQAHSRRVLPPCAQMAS
CAMK1D (human), sequence (Q8IU85 whole entry, looked up): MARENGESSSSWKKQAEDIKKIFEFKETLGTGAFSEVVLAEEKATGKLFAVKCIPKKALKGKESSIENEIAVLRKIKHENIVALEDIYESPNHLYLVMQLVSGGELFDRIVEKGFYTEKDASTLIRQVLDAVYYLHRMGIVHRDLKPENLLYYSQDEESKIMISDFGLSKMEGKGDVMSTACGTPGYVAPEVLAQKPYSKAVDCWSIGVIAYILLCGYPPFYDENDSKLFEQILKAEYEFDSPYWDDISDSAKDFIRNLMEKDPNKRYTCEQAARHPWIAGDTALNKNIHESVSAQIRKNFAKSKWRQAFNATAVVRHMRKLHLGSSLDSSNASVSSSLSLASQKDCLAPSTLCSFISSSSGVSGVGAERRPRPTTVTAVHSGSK

What does the source list for `COc1cc2c(Oc3ccc4[nH]c(C)cc4c3F)ncnc2cc1OCCCN1CCCC1`?
inhibition (AURKC (human); compound 0.02 µM): -4.3%; inhibition (AURKC (human); compound 0.2 µM): -4%; inhibition (CAMK1D (human); compound 0.02 µM): 0.3%; inhibition (CAMK1D (human); compound 0.2 µM): -0.6%; inhibition (CDK4 (human); compound 0.02 µM): 2.7%; inhibition (CDK4 (human); compound 0.2 µM): 7.2%; inhibition (CHEK2 (human); compound 0.02 µM): -1.2%; inhibition (CHEK2 (human); compound 0.2 µM): 3.6%; inhibition (CLK1 (human); compound 0.02 µM): 8.1%; inhibition (CLK1 (human); compound 0.2 µM): -6.1%; inhibition (CSNK1D (human); compound 0.02 µM): -3.7% and -4.3%; inhibition (CSNK1D (human); compound 0.2 µM): -3.5% and -3.9%; inhibition (DYRK1A (human); compound 0.02 µM): 10%; inhibition (DYRK1A (human); compound 0.2 µM): -4%; inhibition (FLT3 (human); compound 0.02 µM): 10%; inhibition (FLT3 (human); compound 0.2 µM): 9.8%; inhibition (FLT4 (human); compound 0.02 µM): 73.8%; inhibition (FLT4 (human); compound 0.2 µM): 97%; inhibition (FYN (human); compound 0.02 µM): 13.7%; inhibition (FYN (human); compound 0.2 µM): 35.9%; inhibition (GSK3B (human); compound 0.02 µM): 0.7%; inhibition (GSK3B (human); compound 0.2 µM): 0.8%; inhibition (HIPK4 (human); compound 0.02 µM): -0.9%; inhibition (HIPK4 (human); compound 0.2 µM): -6.5%; inhibition (IKBKB (human); compound 0.02 µM): -4%; inhibition (IKBKB (human); compound 0.2 µM): -4.5%; inhibition (INSRR (human); compound 0.02 µM): -0.3%; inhibition (INSRR (human); compound 0.2 µM): 13.3%; inhibition (LYN (human); compound 0.02 µM): 13.8% and 15.6%; inhibition (LYN (human); compound 0.2 µM): 53.8% and 53.9%; inhibition (MAPK11 (human); compound 0.02 µM): -2.6%; inhibition (MAPK11 (human); compound 0.2 µM): -3.5%; inhibition (MAPK3 (human); compound 0.02 µM): -1.5%; inhibition (MAPK3 (human); compound 0.2 µM): -5%; inhibition (MYLK2 (human); compound 0.02 µM): -2.3%; inhibition (MYLK2 (human); compound 0.2 µM): -2.4%; inhibition (NEK4 (human); compound 0.02 µM): -3.8%; inhibition (NEK4 (human); compound 0.2 µM): -3.9%; inhibition (NEK7 (human); compound 0.02 µM): -3.6%; inhibition (NEK7 (human); compound 0.2 µM): -4%; inhibition (NUAK1 (human); compound 0.02 µM): 8.9%; inhibition (NUAK1 (human); compound 0.2 µM): -13.6%; inhibition (PAK1 (human); compound 0.02 µM): -2.7%; inhibition (PAK1 (human); compound 0.2 µM): -3%; inhibition (PAK6 (human); compound 0.02 µM): -2.2%; inhibition (PAK6 (human); compound 0.2 µM): -4.9%; inhibition (PLK3 (human); compound 0.02 µM): 6%; inhibition (PLK3 (human); compound 0.2 µM): 7.9%; inhibition (PRKAA1 (human)): 7.1%; inhibition (PRKCA (human); compound 0.02 µM): 10.1%; inhibition (PRKCA (human); compound 0.2 µM): 0.3%; inhibition (PRKCI (human); compound 0.02 µM): 4.3%; inhibition (PRKCI (human); compound 0.2 µM): 6%; inhibition (PRKG2 (human); compound 0.02 µM): -2.4%; inhibition (PRKG2 (human); compound 0.2 µM): -3.4%; inhibition (PRKX (human); compound 0.02 µM): 1.7%; inhibition (PRKX (human); compound 0.2 µM): -0.9%; Ki (PTK6 (human)): 11.8 nM; inhibition (PTK6 (human); compound 0.02 µM): 44.1%; inhibition (PTK6 (human); compound 0.2 µM): 92.1%; inhibition (SGK2 (human); compound 0.02 µM): 4.4%; inhibition (SGK2 (human); compound 0.2 µM): 3.9%; inhibition (SIK1 (human); compound 0.02 µM): -3.3%; inhibition (SIK1 (human); compound 0.2 µM): -0.4%; inhibition (TSSK2 (human); compound 0.02 µM): -4.1%; inhibition (TSSK2 (human); compound 0.2 µM): -3.4%; inhibition (TYK2 JH1 JH2 (human); compound 0.02 µM): 4.8%; inhibition (TYK2 JH1 JH2 (human); compound 0.2 µM): 2.2%
